Test results as given in US7452887B2, “Quinoline- and isoquinoline-based compounds exhibiting ATP-utilizing enzyme inhibitory activity, and compositions, and uses thereof” (Amphora Discovery Corporation, priority 2004, dated 2008).

Target: MAPKAPK2 (Homo sapiens, UniProt P49137)
Experiment: HTS ATP-utilizing enzyme assay, off-chip mobility-shift (Caliper HTS 250)
Format: biochemical
Conditions: test compound 10 μM, kinase listed = active (greater than six-sigma from the mean activity of inactive compounds)
Description: The following procedures describe the reagent and plate preparation for a HTS of an ATP-utilizing enzyme, such as a protein kinase, run in an off-chip mobility-shift assay format. The following provides an HTS protocol for running a protein kinase HTS screen on a Caliper HTS 250 microfluidics system. The following parameters are dependent on the protein kinase used and can be determined by one skilled in the art as part of a typical assay development process. For example, the peptide substrate used can be identified from the current literature, by screening a peptide library of potential protein kinase substrates, or by other applicable means accepted in the field.
The following table provides typical screen assay parameters appropriate for a Caliper HTS 250 microfluidics system.
The reagents and buffers listed in the following table are generally applicable for developing and running an HTS screen on a human protein kinase using the Caliper HTS 250 system.
The following reagents were prepared using the previously described buffers.
A 2× Master Buffer solution was prepared by combining 200 mL of 1 M HEPES, pH 7.5, 2 mL of 10% Triton X-100, 20 mL of 10% BSA, and 778 mL of H2O.
A TCB Buffer solution was prepared by combining 125 mL of 2× Master Buffer, 10 mL of 0.5 M EDTA, 6.25 mL of 4% coating reagent, 1.01 mL of 100% DMSO, and 107.74 mL H2O.
Assays to determine the kinase inhibitory activity of compounds of the present disclosure were performed using a Caliper HTS 250 microfluidics device, Greiner U-bottom assay plates, a Multidrop for transfer of reagents, and Biomek FX (AMNCBM03) software. Initially, 2.4 μL of a 1 mM solution of a test compound in 100% DMSO was added to a well of the Greiner U-bottom plate. A single Greiner U-bottom plate having 24×16 wells could include multiple test compounds. […] Using the Biomek FX, 10 μL of 0.5 M EDTA was added by the span-8 to wells, indicated as 100% Control and 2.4 μL of 100% DMSO was added by the span-8 to wells, indicated as 0% Control. […] The total reaction volume in each well was 25 μL, and the concentration of the test compound was 10 μM. The assay plate was incubated for 2.5 hrs at 20° C. to 22° C. […] The inhibition of the ATP-utilizing enzyme, such as a particular protein kinase, was determined by measuring the ratio of the peptide substrate to phosphorylated product for each well of the assay plate using the Caliper HTS 250 system.
The use of six-sigma statistical limits represents a conservative method for declaring potential hits among targets. The six-sigma activity, as well as the mean population activity, can be different for each target enzyme.

MAPKAPK2, sequence (P49137 whole entry): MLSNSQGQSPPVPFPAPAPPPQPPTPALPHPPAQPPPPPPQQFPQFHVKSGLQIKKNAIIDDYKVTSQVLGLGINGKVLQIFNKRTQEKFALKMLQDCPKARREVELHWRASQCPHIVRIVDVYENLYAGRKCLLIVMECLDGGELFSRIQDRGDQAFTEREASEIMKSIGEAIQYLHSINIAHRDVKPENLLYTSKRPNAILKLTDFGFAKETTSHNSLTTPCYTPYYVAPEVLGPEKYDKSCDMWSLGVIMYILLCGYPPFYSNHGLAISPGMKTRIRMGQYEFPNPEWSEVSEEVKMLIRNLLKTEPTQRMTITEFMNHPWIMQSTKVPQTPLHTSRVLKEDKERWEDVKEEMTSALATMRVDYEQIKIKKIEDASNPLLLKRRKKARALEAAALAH

Row | SMILES | Activity
1 | CC(=O)N1CCc2cc(-c3ccc4nccc(Nc5ccc(N6CCC(N(C)C)C6)cc5)c4c3)ccc21 (stereo not shown) [1-(5-(4-(4-(3-(dimethylamino)pyrrolidin-1-yl)phenylamino)quinolin-6-yl)indolin-1-yl)ethanone] | MAPKAPK2
2 | CN1CCN(c2ccc(Nc3ccnc4ccc(-c5ccccc5C(N)=O)cc34)cc2)CC1 [2-(4-(4-(4-methylpiperazin-1-yl)phenylamino)quinolin-6-yl)benzamide] | MAPKAPK2
3 | CN(C)C(=O)CN1CCN(c2ccc(Nc3ccnc4ccc(-c5ccc(C#N)cc5)cc34)cc2)CC1 [2-(4-(4-(6-(4-cyanophenyl)quinolin-4-ylamino)phenyl)piperazin-1-yl)-N,N-dimethylacetamide] | MAPKAPK2
4 | COc1ccc(-c2ccc3nccc(Nc4ccc(N5CCN(CC(=O)N(C)C)CC5)cc4)c3c2)cc1 [2-(4-(4-(6-(4-methoxyphenyl)quinolin-4-ylamino)phenyl)piperazin-1-yl)-N,N-dimethylacetamide] | MAPKAPK2
5 | COc1ccc(-c2ccc3nccc(Nc4ccc(N5CCN(CCO)CC5)cc4)c3c2)cc1 [2-(4-(4-(6-(4-methoxyphenyl)quinolin-4-ylamino)phenyl)piperazin-1-yl)ethanol] | MAPKAPK2
6 | OCCN1CCN(c2ccc(Nc3ccnc4ccc(-c5ccccc5)cc34)cc2)CC1 [2-(4-(4-(6-phenylquinolin-4-ylamino)phenyl)piperazin-1-yl)ethanol] | MAPKAPK2
7 | CN1CCN(c2ccc(Nc3ccnc4ccc(-c5ccc(CCC(=O)O)cc5)cc34)cc2)CC1 [3-(4-(4-(4-(4-methylpiperazin-1-yl)phenylamino)quinolin-6-yl)phenyl)propanoic acid] | MAPKAPK2
8 | COc1ccc(-c2ccc3nccc(Nc4ccc(N5CCN(CCC#N)CC5)cc4)c3c2)cc1 [3-(4-(4-(6-(4-methoxyphenyl)quinolin-4-ylamino)phenyl)piperazin-1-yl)propanenitrile] | MAPKAPK2
9 | CN1CCC(c2ccc(Nc3ccnc4ccc(-c5ccc(C#N)cc5)cc34)cc2)CC1 [4-(4-(4-(1-methylpiperidin-4-yl)phenylamino)quinolin-6-yl)benzonitrile] | MAPKAPK2
10 | CN(C)CC1CCCN1c1ccc(Nc2ccnc3ccc(-c4ccc(C#N)cc4)cc23)cc1 (stereo not shown) [4-(4-(4-(2-((dimethylamino)methyl)pyrrolidin-1-yl)phenylamino)quinolin-6-yl)benzonitrile] | MAPKAPK2
11 | CN(C)CC1CCCN(c2ccc(Nc3ccnc4ccc(-c5ccc(C#N)cc5)cc34)cc2)C1 (stereo not shown) [4-(4-(4-(3-((dimethylamino)methyl)piperidin-1-yl)phenylamino)quinolin-6-yl)benzonitrile] | MAPKAPK2
12 | CN(Cc1ccccc1)C1CCN(c2ccc(Nc3ccnc4ccc(-c5ccc(C#N)cc5)cc34)cc2)C1 (stereo not shown) [4-(4-(4-(3-(benzyl(methyl)amino)pyrrolidin-1-yl)phenylamino)quinolin-6-yl)benzonitrile] | MAPKAPK2
13 | CCN(CC)C1CCN(c2ccc(Nc3ccnc4ccc(-c5ccc(C#N)cc5)cc34)cc2)C1 (stereo not shown) [4-(4-(4-(3-(diethylamino)pyrrolidin-1-yl)phenylamino)quinolin-6-yl)benzonitrile] | MAPKAPK2
14 | CN(C)C1CCCN(c2ccc(Nc3ccnc4ccc(-c5ccc(C#N)cc5)cc34)cc2)C1 (stereo not shown) [4-(4-(4-(3-(dimethylamino)piperidin-1-yl)phenylamino)quinolin-6-yl)benzonitrile] | MAPKAPK2
15 | CN(C)C1CCN(c2ccc(Nc3ccnc4ccc(-c5ccc(C#N)c(F)c5)cc34)cc2)C1 (stereo not shown) [4-(4-(4-(3-(dimethylamino)pyrrolidin-1-yl)phenylamino)quinolin-6-yl)-2-fluorobenzonitrile] | MAPKAPK2
16 | Cc1cc(-c2ccc3nccc(Nc4ccc(N5CCC(N(C)C)C5)cc4)c3c2)ccc1C#N (stereo not shown) [4-(4-(4-(3-(dimethylamino)pyrrolidin-1-yl)phenylamino)quinolin-6-yl)-2-methylbenzonitrile] | MAPKAPK2
17 | CN(CCC(F)(F)F)C1CCN(c2ccc(Nc3ccnc4ccc(-c5ccc(C#N)cc5)cc34)cc2)C1 (stereo not shown) [4-(4-(4-(3-(methyl(3,3,3-trifluoropropyl)amino)pyrrolidin-1-yl)phenylamino)quinolin-6-yl)benzonitrile] | MAPKAPK2
18 | N#Cc1ccc(-c2ccc3nccc(Nc4ccc(N5CCN(CCO)CC5)cc4)c3c2)cc1 [4-(4-(4-(4-(2-hydroxyethyl)piperazin-1-yl)phenylamino)quinolin-6-yl)benzonitrile] | MAPKAPK2
19 | COCCN1CCN(c2ccc(Nc3ccnc4ccc(-c5ccc(C#N)cc5)cc34)cc2)CC1 [4-(4-(4-(4-(2-methoxyethyl)piperazin-1-yl)phenylamino)quinolin-6-yl)benzonitrile] | MAPKAPK2

The next lines start with the values.

Row | Activity | SMILES
20 | MAPKAPK2 | N#Cc1ccc(-c2ccc3nccc(Nc4ccc(N5CCN(CCCO)CC5)cc4)c3c2)cc1 [4-(4-(4-(4-(3-hydroxypropyl)piperazin-1-yl)phenylamino)quinolin-6-yl)benzonitrile]
21 | MAPKAPK2 | CN(C)CC1CCN(c2ccc(Nc3ccnc4ccc(-c5ccc(C#N)cc5)cc34)cc2)CC1 [4-(4-(4-(4-((dimethylamino)methyl)piperidin-1-yl)phenylamino)quinolin-6-yl)benzonitrile]
22 | MAPKAPK2 | CCC(CC)N1CCN(c2ccc(Nc3ccnc4ccc(-c5ccc(C#N)cc5)cc34)cc2)CC1 [4-(4-(4-(4-(pentan-3-yl)piperazin-1-yl)phenylamino)quinolin-6-yl)benzonitrile]
23 | MAPKAPK2 | C=CCN1CCN(c2ccc(Nc3ccnc4ccc(-c5ccc(C#N)cc5)cc34)cc2)CC1 [4-(4-(4-(4-allylpiperazin-1-yl)phenylamino)quinolin-6-yl)benzonitrile]
24 | MAPKAPK2 | CCCCN1CCN(c2ccc(Nc3ccnc4ccc(-c5ccc(C#N)cc5)cc34)cc2)CC1 [4-(4-(4-(4-butylpiperazin-1-yl)phenylamino)quinolin-6-yl)benzonitrile]
25 | MAPKAPK2 | N#Cc1ccc(-c2ccc3nccc(Nc4ccc(N5CCN(C6CCCCC6)CC5)cc4)c3c2)cc1 [4-(4-(4-(4-cyclohexylpiperazin-1-yl)phenylamino)quinolin-6-yl)benzonitrile]
26 | MAPKAPK2 | N#Cc1ccc(-c2ccc3nccc(Nc4ccc(N5CCN(C6CCCC6)CC5)cc4)c3c2)cc1 [4-(4-(4-(4-cyclopentylpiperazin-1-yl)phenylamino)quinolin-6-yl)benzonitrile]
27 | MAPKAPK2 | CC(C)N1CCN(c2ccc(Nc3ccnc4ccc(-c5ccc(C#N)cc5)cc34)cc2)CC1 [4-(4-(4-(4-isopropylpiperazin-1-yl)phenylamino)quinolin-6-yl)benzonitrile]
28 | MAPKAPK2 | CN1CCN(c2ccc(Oc3ccnc4ccc(-c5ccc(C#N)cc5)cc34)cc2)CC1 [4-(4-(4-(4-methylpiperazin-1-yl)phenoxy)quinolin-6-yl)benzonitrile]
29 | MAPKAPK2 | CC1CCN(c2ccc(Nc3ccnc4ccc(-c5ccc(C#N)cc5)cc34)cc2)CC1 [4-(4-(4-(4-methylpiperidin-1-yl)phenylamino)quinolin-6-yl)benzonitrile]
30 | MAPKAPK2 | CN1CCC(N(C)c2ccc(Nc3ccnc4ccc(-c5ccc(C#N)cc5)cc34)cc2)C1 (stereo not shown) [4-(4-(4-(methyl(1-methylpyrrolidin-3-yl)amino)phenylamino)quinolin-6-yl)benzonitrile]
31 | MAPKAPK2 | CN1CCN(c2ccc(Nc3ccnc4ccc(-c5ccc(C#N)cc5)cc34)nn2)CC1 [4-(4-(6-(4-methylpiperazin-1-yl)pyridazin-3-ylamino)quinolin-6-yl)benzonitrile]
32 | MAPKAPK2 | CN1CCN(c2ccc(Nc3ccnc4ccc(-c5ccc(C#N)cc5)cc34)cn2)CC1 [4-(4-(6-(4-methylpiperazin-1-yl)pyridin-3-ylamino)quinolin-6-yl)benzonitrile]
33 | MAPKAPK2 | CN(C)C1CCN(c2ccc(Nc3ccnc4ccc(-c5ccc6c(c5)CCC6=O)cc34)cc2)C1 (stereo not shown) [5-(4-(4-(3-(dimethylamino)pyrrolidin-1-yl)phenylamino)quinolin-6-yl)-2,3-dihydroinden-1-one]
34 | MAPKAPK2 | CN(C)C1CCN(c2ccc(Nc3ccnc4ccc(-c5cncc(C(=O)O)c5)cc34)cc2)C1 (stereo not shown) [5-(4-(4-(3-(dimethylamino)pyrrolidin-1-yl)phenylamino)quinolin-6-yl)nicotinic acid]
